Measurements reported in ChEMBL document CHEMBL3301472, “MMV Malaria Box HIV and cytotoxicity screening”.

What was measured:
Type in all cases: toxicity, cell-based
[1] = MMV: MTT Cytotoxicity Assay Day 7 pi of Assay #6 (compound washed out Day 1 pi), U87-CD4-CCR5 cells, % cell death @ 5mM compound; conditions: human, u87-cd4-ccr5, 5000 µM
[2] = MMV: MTT Cytotoxicity Assay Day 7 pi of Assay #7 (compound washed out Day 1 pi), U87-CD4-CXCR4 cells, % cell death @ 5mM compound; conditions: human, u87-cd4-cxcr4, 5000 µM
[3] = MMV: MTT Cytotoxicity Assay Day 3 pi, U87-CD4-CXCR4 cells, % cell death @ 5mM compound; conditions: human, u87-cd4-cxcr4, 5000 µM
[4] = MMV: MTT Cytotoxicity Assay Day 7 pi of Assay #10 (NO washout), U87-CD4-CCR5 cells, % cell death @ 5mM compound; conditions: human, u87-cd4-ccr5, 5000 µM
[5] = MMV: MTT Cytotoxicity Assay Day 3 pi, U87-CD4-CCR5 cells, % cell death @ 5mM compound; conditions: human, u87-cd4-ccr5, 5000 µM
[6] = MMV: MTT Cytotoxicity Assay Day 7 pi of Assay #11 (NO washout), U87-CD4-CXCR4 cells, % cell death @ 5mM compound; conditions: human, u87-cd4-cxcr4, 5000 µM

Row | SMILES | % Cell Death [1] | % Cell Death [2] | % Cell Death [3] | % Cell Death [4] | % Cell Death [5] | % Cell Death [6]
1 | CCN1CCCC1CNc1[nH]cnc2c3cc(Cl)ccc3nc1-2 (stereo not given) | 26 | -7 | 23 | 40 | 45 | 14
2 | COc1ccc(-c2c(C)nn3c(N)c(C#N)cnc23)cc1OC | 93 | 89 | 98 | 124 | 83 | 93
3 | C[n+]1c2ccccc2nc2ccc(NCCO)cc21 | 29 | -30 | 11 | 49 | -33 | 16
4 | Cc1ccc(-c2cc3c(SCC(=O)Nc4cc(C(F)(F)F)ccc4Cl)nccn3n2)cc1 | 12 | -26 | 35 | 24 | 18 | 2
5 | CCN(CC)CCNc1ncnc2c1[nH]c1ccc(Cl)cc12 | 1 | -31 | 30 | 5 | 15 | -1
6 | CCOC(=O)c1cnc2ccc(CC)cc2c1O | 13 | -25 | 22 | 21 | 1 | 42
7 | CCN(CC)CCNc1ccnc2cc(Cl)ccc12 | 21 | -5 | 36 | 17 | 4 | -13
8 | Cc1ccc(Nc2nc(-c3ccccn3)cs2)cc1 | 20 | -17 | 29 | 21 | 24 | 12
9 | Cc1cc(Nc2ccc3ccccc3c2)n2ncnc2n1 | 12 | -16 | 38 | -3 | 39 | -43
10 | COc1ccc(-n2ccnc2SCC(=O)Nc2cc(C)ccc2C)c(OC)c1 | 32 | -16 | 54 | 71 | 18 | 78
11 | FC(F)(F)c1ccc(Nc2nnnc3ccccc23)cc1 | 44 | -10 | 28 | 121 | 67 | 90
12 | CN(C)c1ccc(C=Cc2nc(=O)c3ccccc3o2)cc1 | -14 | 0 | 38 | 46 | 39 | 20
13 | CCOC(=O)C1=C(c2ccccc2)N=c2sc(=Cc3cc(C)n(-c4ccc(F)cc4)c3C)c(=O)n2C1c1cccc(OC)c1OC (stereo not given) | 5 | -3 | 45 | -17 | 18 | 20
14 | CCOc1cc(Br)c(C(C)NC(=O)c2cccc(OC)c2)cc1OCC (stereo not given) | 13 | 11 | -7 | 28 | -32 | -7
15 | CCOc1cc(Cl)c(C(C)NC(=O)c2cccc(OC)c2)cc1OCC (stereo not given) | 10 | 16 | 37 | 24 | -1 | 28
16 | OC(CNC1CCCCC1)Cn1c2ccccc2c2ccccc21 (stereo not given) | 13 | -20 | 14 | 35 | -3 | -3
17 | COc1cccc(C=Cc2nc(=O)c3ccccc3o2)c1OC | 17 | -19 | 54 | 51 | 70 | 31
18 | CCCN(CCC)CC(O)COc1ccccc1C(=O)Nc1ccccc1 (stereo not given) | -14 | 14 | 22 | 34 | 33 | -27
19 | Fc1ccc2[nH]c3c(NCCCN4CCOCC4)ncnc3c2c1 | 34 | 7 | 36 | 38 | -1 | 49
20 | COc1ccc(NC(=O)C2c3ccccc3C(=O)N(CC(C)C)C2c2cccs2)cc1Cl (stereo not given) | 5 | -21 | 22 | -2 | 13 | -10

Row | SMILES | % Cell Death [1] | % Cell Death [2] | % Cell Death [3] | % Cell Death [4] | % Cell Death [5] | % Cell Death [6]
21 | CCOC(=O)c1c(C)n(-c2ccc(Cl)cc2)c2ccc(OC(=O)C=Cc3ccccc3)cc12 | 4 | -5 | 26 | 2 | 18 | 51
22 | COc1ccc2c(c1)OC(O)(C(F)(F)C(F)(F)F)CC2=O (stereo not given) | 37 | 4 | 47 | 62 | 42 | 88
23 | FC(F)(F)c1cccc(CNC2CCN(CCc3ccccc3)CC2)c1 | 30 | -15 | 31 | -16 | -16 | 24
24 | O=C(Nc1ccc(Cl)cc1)N1CCN(c2ccc3nncn3n2)CC1 | 83 | 87 | 22 | 92 | 108 | 98
25 | c1ccc2cc3c(Nc4ccc(N5CCOCC5)cc4)ccnc3cc2c1 | 99 | 98 | 97 | 106 | 91 | 108
26 | O=C(CSc1ccc2nnc(-c3cccc(F)c3)n2n1)Nc1ccc2c(c1)OCO2 | 63 | 48 | 54 | 94 | 82 | 100
27 | CCCCNCC(O)(c1ccc(Cl)cc1)c1ccc(Cl)cc1 | 23 | -18 | 29 | 11 | 16 | 27
28 | CNCCCNc1ccnc2cc(Cl)ccc12 | 97 | 98 | 100 | 124 | 108 | 100
29 | COc1ccccc1CNC(=O)CCn1c(=O)[nH]c2ccsc2c1=O | -12 | -19 | 10 | -16 | 34 | -15
30 | COc1ccc(Br)cc1C1Nc2ccc3ccccc3c2C2=C1C(=O)CC(c1ccccc1)C2 (stereo not given) | 30 | -14 | 28 | 16 | 17 | -37
31 | CCc1ccc(Nc2cc(C)c3ccc(O)cc3n2)cc1.Cl | 101 | 95 | 101 | 130 | 105 | 102
32 | O=C(Nc1ccccc1O)c1ccc(-c2ccc(Cl)cc2Cl)o1 | 34 | 66 | -23 | 11 | -37 | 64
33 | CCOc1ccc(-c2nc(NC(=O)c3cccc(S(C)(=O)=O)c3)sc2C)cc1 | 0 | -38 | -6 | 2 | 5 | 29
34 | CCOC(=O)c1ccc2[nH]c(-c3ccccc3)cc(=O)c2c1 | 98 | 96 | 99 | 129 | 104 | 99
35 | COc1ccccc1N1CCN(C(CNS(=O)(=O)c2ccc(Cl)cc2)c2cccnc2)CC1 (stereo not given) | 83 | 81 | 94 | 130 | 109 | 105
36 | Cc1ccc(N2C3c4ccccc4N(S(=O)(=O)c4ccc(C)cc4)C2c2ccccc2N3S(=O)(=O)c2ccc(C)cc2)cc1 | 0 | -17 | 37 | 8 | 26 | -39
37 | CCN(CC)CCCNc1nc(-c2ccc(Cl)cc2)nc2ccccc12 | 13 | 18 | 13 | 18 | -18 | -10
38 | CN1c2ccccc2N(C)C1c1ccc2c(c1)OCO2 | 10 | 16 | 3 | 1 | -7 | -2
39 | Cc1ccc(Nc2nc(NCCO)c3ccccc3n2)cc1C | 3 | -22 | 28 | 36 | -23 | 12
40 | CCOC(=O)c1cnc2c(C)cc(C)cc2c1Nc1ccc(OC)c(OC)c1 | 19 | 7 | 22 | 8 | 11 | -7
